# Assay results from publication PMC7764601 (Molecules, 2020).
# Where two headings read alike, the source gives them in different places. Marks after values point to notes of the source that are not given here.
# Legend:
# mice [1] = experiment: “Hot plate” test in mice; type: in vivo; conditions: for ED50: read-out: ED50, hot plate test; for analgesic effect in the hot plate test (in words): applied doses (Table 4)
# Method: (§1) The experiments were carried out on male albino Swiss mice (body weight 18–26 g). All of the animals were housed at constant humidity (60%) and temperature (25 °C) and kept on a 12 h light/dark cycle. Animals were fed a standard pellet diet with free access to tap water. All procedures were conducted according to Animal Care and Use Committee guidelines, and approved by the Ethical Committee of Jagiellonian University, Kraków.
# (§2) Control and experimental groups consisted of 6–8 animals each. The investigated compounds were administered intraperitoneally as a suspension in 0.5% methylcellulose in a constant volume of 10 mL/kg.
# (§3) The statistical significance was calculated using a Student’s t-test. The ED50 values and their confidence limits were calculated according to the method of Litchfield and Wilcoxon.
# (§4) Pain reactivity was measured in two tests: “hot plate” test (according to the method of Eddy and Leimbach) and “writhing” test in mice (according to Hendershot and Forsaith).
# Animals were placed individually on the metal plate, heated to 55 ± 1 °C. The latency time (s) to the pain reaction (licking of the hind paws or jumping) was recorded by a stop-watch. A cutoff time of 45 s was used to prevent tissue damage.
# mice [2] = experiment: “Writhing” test in mice (phenylbenzoquinone); type: in vivo; conditions: for ED50: Mus musculus, ip, read-out: ED50 (mg/kg) ± SEM, writhing test
# Method: as §1, §2, §3, §4
# Then, after 25 min, the irritant (phenylbenzoquinone, 0.02% solution, ethanol-water, 5:95) was also administered intraperitoneally in a constant volume of 0.25 mL. Five min after the application of the irritant,a 10 min long period of observation started, in which the number of writhing episodes was counted.
# The analgesic effect of individual doses was expressed in percent:(1) % Analgesic effect=100−∑ of writing incidents in experimental group/∑ of writhing incidents in control group×100
# mice [3] = tested on: mice; set-up: method as in PMID 11234340, PMID 12484538, PMID 15652370; conditions: series 1, cited from earlier work
# mice [4] = tested on: mice; set-up: method as in PMID 11234340, PMID 12484538, PMID 15652370; conditions: cited from earlier work; for % Inh. of locomotor activity: series 1; for ED50, influence on the locomotor activity: imides described previously (series 1)
# mice [5] = conditions: compounds obtained previously (series 1 and 2); cited from earlier work
# in vivo = type: in vivo; conditions: male, albino Swiss, mouse, in vivo, ip; mice, intraperitoneal, mortality after 24 h; confidence limits in parentheses
# Method: as §1, §2
# mice [6] = experiment: Spontaneous locomotor activity in mice (photoresistor actometers); type: in vivo; conditions: for ED50: confidence limits in parentheses, read-out: ED50 (mg/kg) ± SEM, spontaneous locomotor activity; for Number of impulses ± SEM (30min): i.p.
# Method: as §1, §2
# Spontaneous locomotor activity in mice was measured in circular photoresistoractometers (32 cm in diameter). […] Thirty minutes after the injection of the investigated compounds, mice were placed in the actometers for 30 min. Each crossing of the light beam was recorded automatically. The amount of impulses was noted after 30 min.
# [7] = Mus musculus, ip, 0.5 h, read-out: Prolonged Time (%)
# [8] = hot plate, mice, dose 100 mg/kg
# [9] = hot plate, mice, dose 200 mg/kg
# [10] = confidence limits in parentheses
# [11] = Mus musculus, ip, 0.5 h, hot plate, mice, dose 100 mg/kg, read-out: Prolonged Time (%)
# [12] = Mus musculus, ip, 0.5 h, hot plate, mice, dose 200 mg/kg, read-out: Prolonged Time (%)
# [13] = Mus musculus, ip, dose 25 mg/kg, read-out: Degree of motor inhibition (%)
# [14] = Mus musculus, ip, dose 50 mg/kg, read-out: Degree of motor inhibition (%)
structure (smiles),measurement,setting,value
"CC(=O)Oc1ccccc1C(=O)O [ASA, Acetylicacid, reference compound]",change in vivo at 100 mg/kg,mice [1]; [7],11.7%
same,change in vivo at 200 mg/kg,mice [1]; [7],35.2%
same,change in vivo at 400 mg/kg,mice [1]; [7],116%
same,ED50,mice [1]; Mus musculus,267 mg/kg
same,Time of Reaction to Pain Stimulus (s) ± SEM,mice [1]; [8],16.2 ± 4.9 s
same,Time of Reaction to Pain Stimulus (s) ± SEM,mice [1]; [9],19.6 ± 4.1 s
same,Time of Reaction to Pain Stimulus (s) ± SEM,"mice [1]; hot plate, mice, dose 400 mg/kg",31.3 ± 1.2 s
same,ED50,mice [2]; [10],39.1 mg/kg
same,Mean no. of writhing ± SEM,"mice [2]; i.p., dose 30 mg/kg",11.2 ± 2.1
same,Mean no. of writhing ± SEM,"mice [2]; i.p., dose 50 mg/kg",8.5 ± 1.3
same,Mean no. of writhing ± SEM,"mice [2]; i.p., dose 100 mg/kg",3.2 ± 1.1
COc1nc(C)cc2c1C(=O)N(CCCN1CCN(c3ccccc3)CC1)C2=O [Compound 1H],Thiopental Anesthesia % Prolong.,mice [3]; dose 25 mg/kg,118%
same,Thiopental Anesthesia % Prolong.,mice [3]; dose 50 mg/kg,194%
same,% Inh. of locomotor activity,mice [4]; dose 12.5 mg/kg,47.67%
same,% Inh. of locomotor activity,mice [4]; dose 25 mg/kg,53.84%
same,% Inh. of locomotor activity,mice [4]; dose 50 mg/kg,66.55%
same,"ED50, influence on the locomotor activity",mice [4],15.17 mg/kg
same,"ED50, writhing test",mice [5],1.03 mg/kg
COc1nc(C)cc2c1C(=O)N(CN1CCN(c3ccccc3)CC1)C2=O [Compound 1K],Thiopental Anesthesia % Prolong.,mice [3]; dose 2.25 mg/kg,134.1%
same,Thiopental Anesthesia % Prolong.,mice [3]; dose 4.5 mg/kg,199.1%
same,% Inh. of locomotor activity,mice [4]; dose 2.25 mg/kg,49.23%
same,% Inh. of locomotor activity,mice [4]; dose 4.5 mg/kg,61.77%
same,"ED50, influence on the locomotor activity",mice [4],2.28 mg/kg
same,"ED50, writhing test",mice [5],2.55 mg/kg
COc1ccccc1N1CCN(CN2C(=O)c3cc(C)nc(OC)c3C2=O)CC1 [Compound 1L],Thiopental Anesthesia % Prolong.,mice [3]; dose 12.5 mg/kg,111.6%
same,Thiopental Anesthesia % Prolong.,mice [3]; dose 25 mg/kg,133.2%
same,Thiopental Anesthesia % Prolong.,mice [3]; dose 50 mg/kg,184.3%
same,% Inh. of locomotor activity,mice [4]; dose 12.5 mg/kg,37.81%
same,% Inh. of locomotor activity,mice [4]; dose 25 mg/kg,40.84%
same,% Inh. of locomotor activity,mice [4]; dose 50 mg/kg,68.25%
same,"ED50, influence on the locomotor activity",mice [4],25.2 mg/kg
same,"ED50, writhing test",mice [5],6.53 mg/kg
COc1nc(C)cc2c1C(=O)N(CCCCN1CCc3ccccc3C1)C2=O [Compound 1N],Thiopental Anesthesia % Prolong.,mice [3]; dose 23 mg/kg,100.0%
same,Thiopental Anesthesia % Prolong.,mice [3]; dose 46 mg/kg,286.5%
same,% Inh. of locomotor activity,mice [4]; dose 46 mg/kg,87.48 * %
same,"ED50, writhing test",mice [5],0.72 mg/kg
COc1nc(C)cc2c1C(=O)N(CCCCN1CCN(c3ccccc3)CC1)C2=O [Compound 1P],Thiopental Anesthesia % Prolong.,mice [3]; dose 50 mg/kg,140.25%
same,Thiopental Anesthesia % Prolong.,mice [3]; dose 100 mg/kg,242.13%
same,% Inh. of locomotor activity,mice [4]; dose 50 mg/kg,67.14%
same,% Inh. of locomotor activity,mice [4]; dose 100 mg/kg,86.10%
same,"ED50, writhing test",mice [5],4.5 mg/kg
COc1nc(C)cc2c1C(=O)N(CN1CCOCC1)C2=O [Compound 1Q],Thiopental Anesthesia % Prolong.,mice [3]; dose 44 mg/kg,141.7 ** %
same,% Inh. of locomotor activity,mice [4]; dose 44 mg/kg,42.65 * %
same,"ED50, writhing test",mice [5],13.66 mg/kg
COc1ccccc1N1CCN(CCCCN2C(=O)c3cc(C)nc(OC)c3C2=O)CC1 [Compound 1R],Thiopental Anesthesia % Prolong.,mice [3]; dose 50 mg/kg,159.12%
same,Thiopental Anesthesia % Prolong.,mice [3]; dose 100 mg/kg,255.97%
same,% Inh. of locomotor activity,mice [4]; dose 100 mg/kg,82.32 ** %
same,"ED50, writhing test",mice [5],6.8 mg/kg
"COc1nc(C)cc2c1C(=O)N(CCCCN1CCOCC1)C2=O [Compound 8, 4-methoxy-6-methyl-4-(N-morpholino)-butyl-1H-pyrrolo[3,4-c]pyridine-1,3-(2H)-dion]",change in vivo at 100 mg/kg,mice [1]; [11],3.87%
same,change in vivo at 200 mg/kg,mice [1]; [12],27.5%
same,Time of Reaction to Pain Stimulus (s) ± SEM,mice [1]; [8],10.2 ± 1.8 s
same,Time of Reaction to Pain Stimulus (s) ± SEM,mice [1]; [9],12.2 ± 1.4 s
same,analgesic effect in the hot plate test (in words),mice [1]; mice,not statistically significant
same,LD50 at 24 h,in vivo,> 2000 mg/kg
same,ED50,"mice [6]; Mus musculus, ip",34.2 mg/kg
same,inhibition at 5 mg/kg,"mice [6]; Mus musculus, ip, dose 5 mg/kg, read-out: Degree of motor inhibition (%)",18.1%
same,inhibition at 12.5 mg/kg,"mice [6]; Mus musculus, ip, dose 12.5 mg/kg, read-out: Degree of motor inhibition (%)",32.8%
same,inhibition at 25 mg/kg,mice [6]; [13],35.4%
same,inhibition at 50 mg/kg,mice [6]; [14],61.6%
same,Number of impulses ± SEM (30min),mice [6]; dose 5 mg/kg,387 ± 24
same,Number of impulses ± SEM (30min),mice [6]; dose 12.5 mg/kg,312 ±26
same,Number of impulses ± SEM (30min),mice [6]; dose 25 mg/kg,299 ± 59
same,Number of impulses ± SEM (30min),mice [6]; dose 50 mg/kg,178 ± 30
same,Mean no. of writhing ± SEM,"mice [2]; i.p., dose 12.5 mg/kg",19.8 ± 2.1
same,Mean no. of writhing ± SEM,"mice [2]; i.p., dose 25 mg/kg",6.2 ± 0.9
CCOc1nc(C)cc2c1C(=O)N(CCN1CCN(c3ccccc3)CC1)C2=O [Compound 10],change in vivo at 100 mg/kg,mice [1]; [11],6.98%
same,change in vivo at 200 mg/kg,mice [1]; [12],34.9%
same,Time of Reaction to Pain Stimulus (s) ± SEM,mice [1]; [8],18.4 ± 1.7 s
same,Time of Reaction to Pain Stimulus (s) ± SEM,mice [1]; [9],23.2 ± 2.6 s
same,analgesic effect in the hot plate test (in words),mice [1]; mice,not statistically significant
same,LD50 at 24 h,in vivo,> 2000 mg/kg
same,ED50,"mice [6]; Mus musculus, ip",84 ± 5.1 mg/kg
same,inhibition at 25 mg/kg,mice [6]; [13],49.2%
same,inhibition at 50 mg/kg,mice [6]; [14],55.1%
same,inhibition at 100 mg/kg,"mice [6]; Mus musculus, ip, dose 100 mg/kg, read-out: Degree of motor inhibition (%)",6.8%
same,Number of impulses ± SEM (30min),mice [6]; dose 25 mg/kg,224 ± 45
same,Number of impulses ± SEM (30min),mice [6]; dose 50 mg/kg,198 ± 54
same,Number of impulses ± SEM (30min),mice [6]; dose 100 mg/kg,142 ± 29
same,ED50,mice [2]; [10],15.8 ± 0.91 mg/kg
same,Mean no. of writhing ± SEM,"mice [2]; i.p., dose 25 mg/kg",7.9 ± 2.1
same,Mean no. of writhing ± SEM,"mice [2]; i.p., dose 50 mg/kg",2.1 ± 0.6
same,Mean no. of writhing ± SEM,"mice [2]; i.p., dose 100 mg/kg",0.9 ± 0.1
"CN1CC[C@]23c4c5ccc(O)c4O[C@H]2[C@@H](O)C=C[C@H]3[C@H]1C5 [Morphine, reference compound]",change in vivo at 1 mg/kg,mice [1]; [7],33.8%
same,change in vivo at 3 mg/kg,mice [1]; [7],104%
same,change in vivo at 6 mg/kg,mice [1]; [7],111%
same,ED50,mice [1]; Mus musculus,2.55 mg/kg
same,Time of Reaction to Pain Stimulus (s) ± SEM,"mice [1]; hot plate, mice, dose 1 mg/kg",19.4 ± 2.1 s
same,Time of Reaction to Pain Stimulus (s) ± SEM,"mice [1]; hot plate, mice, dose 3 mg/kg",29.6 ± 6 s
same,Time of Reaction to Pain Stimulus (s) ± SEM,"mice [1]; hot plate, mice, dose 6 mg/kg",30.6 ± 3.9 s
same,"ED50 (mg/kg) ± SEM, writhing test","mice [2]; i.p., confidence limits in parentheses",2.44 mg/kg
same,Mean no. of writhing ± SEM,"mice [2]; i.p., dose 1 mg/kg",16.2 ± 3.51
same,Mean no. of writhing ± SEM,"mice [2]; i.p., dose 3 mg/kg",7.5 ± 2.9
same,Mean no. of writhing ± SEM,"mice [2]; i.p., dose 10 mg/kg",1.2 ± 0.8
